The subject of assay [1] is Bacillus anthracis. Kind of assay: Antimicrobial activity against Bacillus anthracis Sterne 411A2 harboring GyrA Ser85Leu and parC Ser81Phe mutant gene by broth microdilution method. It is filed as functional, Bacillus anthracis str. Sterne. (In general: Dilution methods test growth across graded concentrations, often in twofold steps.)
Assay [2] deals with Bacillus anthracis. Kind of assay: Antimicrobial activity against Bacillus anthracis Sterne 402 harboring gyrA Ser85Leu mutant gene by broth microdilution method. The class given is functional, Bacillus anthracis str. Sterne.
Assay [3] concerns Bacillus anthracis. Put plainly: Antimicrobial activity against Bacillus anthracis A0465 by broth microdilution method. It is filed as functional.
Assay [4] deals with Bacillus anthracis. Put plainly: Antimicrobial activity against Bacillus anthracis A0248 by broth microdilution method. It is filed as functional.
Assay [5] has as its system Bacillus anthracis. Put plainly: Antimicrobial activity against Bacillus anthracis A0462 by broth microdilution method. It is filed as functional.
In assay [6] the test system is Bacillus anthracis. Put plainly: Antimicrobial activity against Bacillus anthracis A03768 by broth microdilution method. It is filed as functional.
The subject of assay [7] is Bacillus anthracis. Put plainly: Antimicrobial activity against Bacillus anthracis A0193 by broth microdilution method. The class given is functional.
Assay [8] concerns Bacillus anthracis. Kind of assay: Antimicrobial activity against Bacillus anthracis Sterne 411A2 assessed as growth inhibition at 16 ug/ml after 4 hrs relative to control. The class given is functional, organism-based. The settings on record: Bacillus anthracis str. Sterne.
Assay [9] concerns Bacillus anthracis. Put plainly: Antimicrobial activity against tetracycline-nonsusceptible Bacillus anthracis Sterne S1028 by broth microdilution method. The class given is functional, Bacillus anthracis str. Sterne.
Assay [10] deals with Bacillus anthracis. Kind of assay: Antimicrobial activity against Bacillus anthracis 240 by broth microdilution method. The class given is functional.
The subject of assay [11] is Bacillus anthracis. Put plainly: Antimicrobial activity against Bacillus anthracis A0102 by broth microdilution method. It is filed as functional.
For assay [12], the system named is Bacillus anthracis. Put plainly: Antimicrobial activity against Bacillus anthracis A0488 by broth microdilution method. It is filed as functional.
For assay [13], the system named is Bacillus anthracis. Put plainly: Antimicrobial activity against Bacillus anthracis A0188 by broth microdilution method. The class given is functional.
In assay [14] the test system is Bacillus anthracis. Kind of assay: Antimicrobial activity against Bacillus anthracis A0264 by broth microdilution method. It is filed as functional.
In assay [15] the test system is Bacillus anthracis. Kind of assay: Antimicrobial activity against Bacillus anthracis A0419 by broth microdilution method. It is filed as functional.
Assay [16] has as its system Bacillus anthracis. Kind of assay: Antimicrobial activity against Bacillus anthracis A0149 by broth microdilution method. The class given is functional.
Assay [17] deals with Bacillus anthracis. Kind of assay: Antimicrobial activity against Bacillus anthracis A0293 by broth microdilution method. The class given is functional.
The subject of assay [18] is Bacillus anthracis. Kind of assay: Antimicrobial activity against pXO1-positive and pXO2 negative Bacillus anthracis 34F2 by broth microdilution method. The class given is functional.

Converted amounts (≈) assume the structure as drawn. The source made the active and inactive calls. The calls are words filed in the database; no cut-off is given here.

Broadly, the MIC is the lowest concentration found to suppress growth. High values mean a less susceptible organism, low ones a more susceptible organism.

In the case of `O=C(O)c1cn(C2CC2)c2cc(N3CCNCC3)c(F)cc2c1=O` [CIPROFLOXACIN], the MIC is above 16 µg/mL against Bacillus anthracis [1]; 1 µg/mL (≈ 3.02 µM) against Bacillus anthracis [2]; 0.03 µg/mL (≈ 0.0905 µM) against Bacillus anthracis [3]; 0.12 µg/mL (≈ 0.362 µM) in the assay on Bacillus anthracis [4]; 0.12 µg/mL (≈ 0.362 µM) against Bacillus anthracis [5]; 0.12 µg/mL (≈ 0.362 µM) in the assay on Bacillus anthracis [6]. Besides, in the assay with Bacillus anthracis [7], the MIC was found to be 0.015 µg/mL (≈ 0.0453 µM). For the same compound, the inhibition entry with Bacillus anthracis [8] was “inactive”.

In the case of `C[C@H]1c2cccc(O)c2C(=O)C2=C(O)[C@]3(O)C(=O)C(C(N)=O)=C(O)[C@@H](N(C)C)[C@@H]3[C@@H](O)[C@@H]21.O` [DOXYCYCLINE], the MIC against Bacillus anthracis [9] was 1 µg/mL; in the assay with Bacillus anthracis [1], “<=0.06 ug ml-1”; against Bacillus anthracis [2] it was “<=0.06 ug ml-1”; against Bacillus anthracis [10] it was at most 0.06 µg/mL; in the assay with Bacillus anthracis [11] it was at most 0.06 µg/mL; against Bacillus anthracis [12], at most 0.06 µg/mL. The minimum inhibitory concentration (MIC) in the assay with Bacillus anthracis [3], in the assay with Bacillus anthracis [4], against Bacillus anthracis [5], in the assay on Bacillus anthracis [6], in the assay with Bacillus anthracis [13] and against Bacillus anthracis [14] was at most 0.06 µg/mL each time. Besides, the MIC in the assay with Bacillus anthracis [15], against Bacillus anthracis [16], in the assay on Bacillus anthracis [17], with Bacillus anthracis [7] and with Bacillus anthracis [18] was at most 0.06 µg/mL in each case.

These data come from ChEMBL document CHEMBL1275243 (2010).
